Test results from patent publication US20240124460A1, “METHODS AND COMPOSITIONS FOR TARGETED PROTEIN DEGRADATION” (Ranok Therapeutics (Hangzhou) Co. Ltd., priority 2020, published 2024).

How the values were obtained:
HSP90α protein = target: T1, HSP90α protein (Homo sapiens, UniProt P07900); assay: HSP90α-binding FP (BODIPY) assay; details: FP competition with BODIPY-labeled RNK04010
T1 construct: purchased BPS Bioscience #50298
Method: Binding of test compounds to HSP90α protein was measured by fluorescent polarization (FP) using the HSP90α (N-terminal) Assay Kit (BPS Bioscience, #50298), following the manufacturer's instructions, except as noted. Fluorescently labeled HSP90-binding compounds, either the provided FITC-geldanamycin (5 nM final concentration) or RNK04010, a triazolone-based HSP90 binding small molecule labeled with BODIPY through a piperazine-phenyl linker (5 nM final concentration) were employed. A 2.5-fold serial dilution of each test compound ranging from 20 μM to 5.2 nM was assayed for binding to HSP90α. After the final step of adding HSP90α protein to each assay well, plates were mixed by brief shaking, incubated at 25° C. for 120 min for FITC-geldanamycin or 300 min for RNK04010, and fluorescence was measured using a PerkinElmer EnVision Plate Reader.

[1] = system: MV-4-11 human acute myeloid leukemia; assay: MV-4-11 CCK-8 proliferation assay; type: cell-based; details: Homo sapiens, MV4-11; MV-4-11 cells, 72 hr
How it was run: (§1)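 Inhibition is derived from CCK-8 absorbance of compound-treated cells relative to DMSO-treated cells, after subtracting a cell-free medium/DMSO background. Test concentrations span 20 μM down to 1.02 nM in 3-fold steps, and lines are cultured as ATCC recommends.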

[2] = system: U-87 MG human glioblastoma; assay: U87 MG CCK-8 proliferation assay; type: cell-based; details: Homo sapiens, U-87 MG, 72 h, U-87 MG cells, read-out: U87MG CCK-8
How it was run: as §1

Row | Compound | IC50 (HSP90α protein) | EC50 [1] | EC50 [2]
1 | CCOc1cc(N2CCC(C(=O)N3CCC(CN4CCN(Cc5ccc(-n6c(C(=O)NC(C)C(F)(F)F)nnc6-c6cc(CC)c(O)cc6O)cc5)CC4)CC3)CC2)ccc1Nc1ncc2c(n1)N(C)c1ccccc1C(=O)N2C (stereo not shown) [Compound 114, 4-(4-((4-((1-(1-(4-((5,11-dimethyl-6-oxo-6,11-dihydro-5H-benzo[e]pyrimido[5,4-b][1,4]diazepin-2-yl)amino)-3-ethoxyphenyl)piperidine-4-carbonyl)piperidin-4-yl)methyl)piperazin-1-yl)methyl)phenyl)-5-(5-ethyl-2,4-dihydroxyphenyl)-N-(1,1,1-trifluoropropan-2-yl)-4H-1,2,4-triazole-3-carboxamide] | 100 to 1000 nM | < 100 nM | 100 to 1000 nM
2 | CCOc1cc(N2CCC(C(=O)NCc3ccc(-n4c(O)nnc4-c4cc(C(C)C)c(O)cc4O)cc3)CC2)ccc1Nc1ncc2c(n1)N(S(C)(=O)=O)c1ccccc1C(=O)N2C [Compound 080, N-(4-(3-(2,4-dihydroxy-5-isopropylphenyl)-5-hydroxy-4H-1,2,4-triazol-4-yl)benzyl)-1-(3-ethoxy-4-((5-methyl-11-(methylsulfonyl)-6-oxo-6,11-dihydro-5H-benzo[e]pyrimido[5,4-b][1,4]diazepin-2-yl)amino)phenyl)piperidine-4-carboxamide] | 100 to 1000 nM | < 100 nM | > 1000 nM
3 | CCOc1cc(N2CCC(C(=O)N3CCC(N4CCN(Cc5ccc(-n6c(O)nnc6-c6cc(C(C)C)c(O)cc6O)cc5)CC4)CC3)CC2)ccc1Nc1ncc2c(n1)N(S(C)(=O)=O)c1ccccc1C(=O)N2C [Compound 064, 2-((4-(4-(4-(4-(4-(3-(2,4-dihydroxy-5-isopropylphenyl)-5-hydroxy-4H-1,2,4-triazol-4-yl)benzyl)piperazin-1-yl)piperidine-1-carbonyl)piperidin-1-yl)-2-ethoxyphenyl)amino)-5-methyl-11-(methylsulfonyl)-5,11-dihydro-6H-benzo[e]pyrimido[5,4-b][1,4]diazepin-6-one] | < 100 nM | < 100 nM | < 100 nM
4 | CCOc1cc(N2CCC(C(=O)N3CCN(Cc4ccc(-n5c(O)nnc5-c5cc(C(C)C)c(O)cc5O)cc4C(F)(F)F)CC3)CC2)ccc1Nc1ncc2c(n1)N(S(C)(=O)=O)c1ccccc1C(=O)N2C [Compound 072, 2-((4-(4-(4-(4-(3-(2,4-dihydroxy-5-isopropylphenyl)-5-hydroxy-4H-1,2,4-triazol-4-yl)-2-(trifluoromethyl)benzyl)piperazine-1-carbonyl)piperidin-1-yl)-2-ethoxyphenyl)amino)-5-methyl-11-(methylsulfonyl)-5,11-dihydro-6H-benzo[e]pyrimido[5,4-b][1,4]diazepin-6-one] | 100 to 1000 nM | < 100 nM | 100 to 1000 nM
5 | CCOc1cc(N2CCC(C(=O)NCc3ccc(-n4c(O)nnc4-c4cc(CC)c(O)cc4O)cc3)CC2)ccc1Nc1ncc2c(n1)N(S(C)(=O)=O)c1ccccc1C(=O)N2C [Compound 071, 1-(3-ethoxy-4-((5-methyl-11-(methylsulfonyl)-6-oxo-6,11-dihydro-5H-benzo[e]pyrimido[5,4-b][1,4]diazepin-2-yl)amino)phenyl)-N-(4-(3-(5-ethyl-2,4-dihydroxyphenyl)-5-hydroxy-4H-1,2,4-triazol-4-yl)benzyl)piperidine-4-carboxamide] | 100 to 1000 nM | 100 to 1000 nM | > 1000 nM
6 | CCOc1cc(N2CCC(C(=O)NCCOCCOCCOCCOc3ccc(Nc4cc(-n5nc(C(F)(F)F)c6c5CC(C)(C)CC6=O)ccc4C(N)=O)cc3)CC2)ccc1Nc1ncc2c(n1)N(S(C)(=O)=O)c1ccccc1C(=O)N2C [Compound 140, N-(2-(2-(2-(2-(4-((2-carbamoyl-5-(6,6-dimethyl-4-oxo-3-(trifluoromethyl)-4,5,6,7-tetrahydro-1H-indazol-1-yl)phenyl)amino)phenoxy)ethoxy)ethoxy)ethoxy)ethyl)-1-(3-ethoxy-4-((5-methyl-11-(methylsulfonyl)-6-oxo-6,11-dihydro-5H-benzo[e]pyrimido[5,4-b][1,4]diazepin-2-yl)amino)phenyl)piperidine-4-carboxamide] | > 1000 nM | 100 to 1000 nM | –
7 | CCOc1cc(N2CCC(C(=O)NCCOCCOCCOc3ccc(Nc4cc(-n5nc(C(F)(F)F)c6c5CC(C)(C)CC6=O)ccc4C(N)=O)cc3)CC2)ccc1Nc1ncc2c(n1)N(S(C)(=O)=O)c1ccccc1C(=O)N2C [Compound 139, N-(2-(2-(2-(4-((2-carbamoyl-5-(6,6-dimethyl-4-oxo-3-(trifluoromethyl)-4,5,6,7-tetrahydro-1H-indazol-1-yl)phenyl)amino)phenoxy)ethoxy)ethoxy)ethyl)-1-(3-ethoxy-4-((5-methyl-11-(methylsulfonyl)-6-oxo-6,11-dihydro-5H-benzo[e]pyrimido[5,4-b][1,4]diazepin-2-yl)amino)phenyl)piperidine-4-carboxamide] | > 1000 nM | 100 to 1000 nM | –
8 | CCOc1cc(N2CCC(C(=O)N3CCC(CN4CCN(Cc5ccc(-n6c(C(=O)NC(C)C(F)(F)F)nnc6-c6cc(CC)c(O)cc6O)cc5)CC4)CC3)CC2)ccc1Nc1ncc2c(n1)N(S(C)(=O)=O)c1ccccc1C(=O)N2C (stereo not shown) [Compound 107, 4-(4-((4-((1-(1-(3-ethoxy-4-((5-methyl-11-(methylsulfonyl)-6-oxo-6,11-dihydro-5H-benzo[e]pyrimido[5,4-b][1,4]diazepin-2-yl)amino)phenyl)piperidine-4-carbonyl)piperidin-4-yl)methyl)piperazin-1-yl)methyl)phenyl)-5-(5-ethyl-2,4-dihydroxyphenyl)-N-(1,1,1-trifluoropropan-2-yl)-4H-1,2,4-triazole-3-carboxamide] | 100 to 1000 nM | < 100 nM | –
9 | CCOc1cc(N2CCC(C(=O)N3CCC(CN4CCN(CCOc5ccc(Nc6cc(-n7nc(C(F)(F)F)c8c7CC(C)(C)CC8=O)ccc6C(N)=O)cc5)CC4)CC3)CC2)ccc1Nc1ncc2c(n1)N(S(C)(=O)=O)c1ccccc1C(=O)N2C [Compound 138, 4-(6,6-dimethyl-4-oxo-3-(trifluoromethyl)-4,5,6,7-tetrahydro-1H-indazol-1-yl)-2-((4-(2-(4-((1-(1-(3-ethoxy-4-((5-methyl-11-(methylsulfonyl)-6-oxo-6,11-dihydro-5H-benzo[e]pyrimido[5,4-b][1,4]diazepin-2-yl)amino)phenyl)piperidine-4-carbonyl)piperidin-4-yl)methyl)piperazin-1-yl)ethoxy)phenyl)amino)benzamide] | > 1000 nM | 100 to 1000 nM | –
10 | CCOc1cc(N2CCC(C(=O)N3CCC(CN4CCC(COc5ccc(Nc6cc(-n7nc(C(F)(F)F)c8c7CC(C)(C)CC8=O)ccc6C(N)=O)cc5)CC4)CC3)CC2)ccc1Nc1ncc2c(n1)N(S(C)(=O)=O)c1ccccc1C(=O)N2C [Compound 137, 4-(6,6-dimethyl-4-oxo-3-(trifluoromethyl)-4,5,6,7-tetrahydro-1H-indazol-1-yl)-2-((4-((1-((1-(1-(3-ethoxy-4-((5-methyl-11-(methylsulfonyl)-6-oxo-6,11-dihydro-5H-benzo[e]pyrimido[5,4-b][1,4]diazepin-2-yl)amino)phenyl)piperidine-4-carbonyl)piperidin-4-yl)methyl)piperidin-4yl)methoxy)phenyl)amino)benzamide] | > 1000 nM | 100 to 1000 nM | –
11 | CCOc1cc(N2CCC(C(=O)N3CCN(Cc4ccc(-n5c(C(=O)NCCN(CC)CC)nnc5-c5cc(C(C)C)c(O)cc5O)cc4)CC3)CC2)ccc1Nc1ncc2c(n1)N(C)c1ccccc1C(=O)N2C [Compound 163, N-(2-(diethylamino)ethyl)-5-(2,4-dihydroxy-5-isopropylphenyl)-4-(4-((4-(1-(4-((5,11-dimethyl-6-oxo-6,11-dihydro-5H-benzo[e]pyrimido[5,4-b][1,4]diazepin-2-yl)amino)-3-ethoxyphenyl)piperidine-4-carbonyl)piperazin-1-yl)methyl)phenyl)-4H-1,2,4-triazole-3-carboxamide] | – | < 100 nM | < 100 nM
12 | CCOc1cc(N2CCC(CN3CCC(CN4CCN(Cc5ccc(-n6c(C(=O)NC(C)C(F)(F)F)nnc6-c6cc(C(C)C)c(O)cc6O)cc5)CC4)CC3)CC2)ccc1Nc1ncc2c(n1)N(S(C)(=O)=O)c1ccccc1C(=O)N2C (stereo not shown) [Compound 181, 5-(2,4-dihydroxy-5-isopropylphenyl)-4-(4-((4-((1-((1-(3-ethoxy-4-((5-methyl-11-(methylsulfonyl)-6-oxo-6,11-dihydro-5H-benzo[e]pyrimido[5,4-b][1,4]diazepin-2-yl)amino)phenyl)piperidin-4-yl)methyl)piperidin-4-yl)methyl)piperazin-1-yl)methyl)phenyl)-N-(1,1,1-trifluoropropan-2-yl)-4H-1,2,4-triazole-3-carboxamide] | – | < 100 nM | 100 to 1000 nM
13 | CCOc1cc(N2CCC(CN3CCC(CN4CCN(Cc5ccc(-n6c(C(=O)NC(C)C(F)(F)F)nnc6-c6cc(CC)c(O)cc6O)cc5)CC4)CC3)CC2)ccc1Nc1ncc2c(n1)N(S(C)(=O)=O)c1ccccc1C(=O)N2C (stereo not shown) [Compound 179, 4-(4-((4-((1-((1-(3-ethoxy-4-((5-methyl-11-(methylsulfonyl)-6-oxo-6,11-dihydro-5H-benzo[e]pyrimido[5,4-b][1,4]diazepin-2-yl)amino)phenyl)piperidin-4-yl)methyl)piperidin-4-yl)methyl)piperazin-1-yl)methyl)phenyl)-5-(5-ethyl-2,4-dihydroxyphenyl)-N-(1,1,1-trifluoropropan-2-yl)-4H-1,2,4-triazole-3-carboxamide 2,2,2-trifluoroacetate] | – | < 100 nM | < 100 nM
